Like-named read-outs stand apart in the source and are kept apart here.

Series [1] concerns the target T1, human recombinant Monoacylglycerol Lipase (Homo sapiens, UniProt Q99685).
T1 sequence (Q99685 1-303): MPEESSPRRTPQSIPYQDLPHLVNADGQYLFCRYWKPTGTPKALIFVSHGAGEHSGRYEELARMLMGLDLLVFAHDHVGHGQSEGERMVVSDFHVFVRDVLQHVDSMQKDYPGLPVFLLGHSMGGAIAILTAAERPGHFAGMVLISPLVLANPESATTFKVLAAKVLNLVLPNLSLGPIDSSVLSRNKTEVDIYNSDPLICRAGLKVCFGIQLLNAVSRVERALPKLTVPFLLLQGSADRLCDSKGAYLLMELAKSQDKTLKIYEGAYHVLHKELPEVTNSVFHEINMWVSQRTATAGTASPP
As to the kind of experiment: MAGL inhibition enzymatic assay (7-HCA fluorogenic substrate). Type of series: biochemical. The settings on record: geometric mean. As for the experimental part:
(§1) Assessment of MAGL inhibition utilizes human recombinant Monoacylglycerol Lipase and the fluorogenic substrate 7-hydroxycoumarinyl arachidonate (7-HCA, Biomol ST-502). 400 nL of a test compound at decreasing concentration (ranging from 150 μM down to 1.5 nM) was spotted into a 384-well back plate (PerkinElmer, 6007279) using a Labcyte Echo, followed by addition of 10 μL of MAGL enzyme in assay buffer (50 mM HEPES, pH 7.4, 100 mM NaCl, 5 mM MgCl2, 0.1% Triton X-100 and 25% glycerin). An equal volume of 7-HCA in assay buffer with 10% DMSO was added either immediately (T=0 min) or after a 30 minute incubation (T=30 min) to initiate the reaction. The final concentration of MAGL enzyme was […] and 7-HCA substrate was 5 μM. After these dilutions, the final concentration of the test compound ranged from 3 μM to 0.03 nM. The reaction was allowed to progress for 60 minutes, after which the plate was read at an Ex/Em of 340/465. Percent inhibitions were calculated based on control wells containing no compound (0% inhibition) and a control compound (e.g., a MAGL inhibitor whose activity is known or was previously reported in the literature, such as one with about 100% inhibition). IC50 values were generated based on a four parameter fit model using ABASE software from IDBS. See e.g., Wang, Y. et al., “A Fluorescence-Based Assay for Monoacylglycerol Lipase Compatible with Inhibitor Screening,” Assay and Drug Development Technologies, 2008, Vol. 6 (3) pp 387-393 (reporting an assay for measuring MAGL activity).

In series [2] the target is T1, human recombinant Monoacylglycerol Lipase. Put plainly: MAGL inactivation (enzyme progress curves, kinact/KI). In kind it is biochemical. The settings on record: geometric mean. On the procedure: as §1
To measure MAGL inactivation, the same protocol for the (T=0 min) MAGL inhibition IC50 assay was performed with data collected every minute to acquire enzyme progress curves at decreasing concentrations of compound.

The nature of series [3]: In vitro intrinsic clearance in human liver microsomes (HLM). Type of series: in vitro ADME. The settings on record: pH 7.4, 1 μM substrate, NADPH, 37° C., read-out: HLM CLint, app. On the procedure: Test Compounds (Example 1-3 and Comparative-Compounds 1-4) were prepared as solutions in DMSO. The final concentration of DMSO in the incubation was <0.1% (v/v). […] (all final concentrations) in a 384-well plate. The reaction mixture was pre-warmed at 37° C. for 10 min prior to initiation of the incubation. The incubation was quenched with acetonitrile containing internal standards at the following time points: 1, 4, 7, 12, 20, 25, 45, and 60 min (individual incubation plates per time point) with a subsequent addition of water. The samples were vortexed followed by centrifugation and the supernatant was analyzed by LC/MS-MS using multiple reaction monitoring. For control experiments, NADPH was omitted from the incubations.
The microsomal t½ (min) was obtained from a log-linear plot of the substrate depletion versus incubation time and was scaled to hepatic intrinsic clearance (CLint,app (μL/min/mg protein) using the following equation: […]
On the technique in general: Liver microsomes are a subcellular fraction often used to study metabolism.

Series [4] is described as follows: Dog intravenous pharmacokinetic study. In kind it is in vivo, Male beagle dogs. As to conditions: male, beagle, IV dose of 1 mg/kg, plasma, read-out: Dog t1/2 (converted). As for the experimental part: The pharmacokinetic studies in dog were conducted at Pfizer Global Research and Development (Groton, Conn.). All in vivo studies were conducted in accordance with regulations and established guidelines using protocols reviewed and approved by the Pfizer Worldwide Research and Development (WRD, or other) Institutional Animal Care and Use Committee.
Male beagle dogs were fasted overnight with water provided ad libitium. The dogs were fed at approximately 2-4 h post-dose. The dogs (n=2) were administered an IV bolus via the cephalic vein. Compounds of Examples 1-3 were tested along with the following four comparative compounds.
All test compounds were administered an IV dose of 1 mg/kg of the specified compound which was delivered in a dose volume of 0.5 mL/kg. The dose solution was formulated in 10% PEG400/90% of 23% (w/v) HPBCD in de-ionized water for the following test compounds: Example 1, Example 2, and Example 3; in 20% SBECD (sulfobutyl either β-cyclodextrin) for Comparative-Compound 3; in 23% (w/v) HPBCD (hydroxypropyl β-cyclodextrin) in water for Comparative Compound 2; in 12.5.% SBECD in water with 0.25% 0.1N HCl to pH 5 for Comparative Compound 1. Serial blood samples were collected from each dog via the jugular vein prior to dose administration and at the following time points post-dose: 0.083, 0.25, 0.5, 1, 2, 4, 7, and 24 h for all compounds with an additional time point of 0.016 h collected for Comparative Compound 1 only. Blood samples were collected into tubes containing EDTA and placed on wet ice. Following centrifugation to afford plasma, the samples were transferred to polypropylene tubes and stored frozen at −20° C. to −80° C. until analysis.
All plasma samples were quantified via liquid chromatography/tandem mass spectrometry (LC/MS-MS) using multiple reaction monitoring with non-validated methods. The plasma standard curves were generated with species specific plasma. Pharmacokinetic parameters were determined by non-compartmental analysis using Watson LIMS software version 7.4 (Thermo Fisher Scientific, Waltham, Mass.). The area under the concentration versus time curve (AUC) was calculated from the first time point to the last time point with measurable drug concentration using a linear trapezoidal rule. The area under the concentration versus time curve from the first time point to time infinity (AUC(0-inf)) was calculated by extrapolation from the time point where the last measurable concentration occurred to time infinity by dividing the observed concentration at the last time point by the elimination rate constant determined using linear regression of plasma concentration versus time data. The plasma clearance (CLp) was calculated by the equation CLp=dose/AUC(0-inf). The elimination half-life (t½) was calculated using the following equation t1/2=ln 2/k; k is equal to the rate constant of elimination calculated by the least squares of the log transformed data.

[5] abbreviates: 30 minute incubation before substrate, read-out: MAGL (T = 30 min) IC50.
[6] abbreviates: substrate added immediately (T=0 min), read-out: MAGL (T = 0 min) IC50.

Usually IC50 stands for the concentration that inhibits the measured activity by half. On to `O=C(OC(C(F)(F)F)C(F)(F)F)N1CCC2(CC1)C[C@@H](NS(=O)(=O)CC1CC1)CO2` [Example 1, 1,1,1,3,3,3-Hexafluoropropan-2-yl (3R)-3-{[(cyclopropylmethyl)sulfonyl]amino}-1-oxa-8-azaspiro[4.5]decane-8-carboxylate], for which the IC50 was 27.6 nM in series [1] (setting [5]) and 292 nM in series [1] (setting [6]). For the same molecule, in series [2], the “MAGL kinact/KI” value is listed as 2990 1/s per M. Also, in series [3], the microsomal CLint at 1 μM is less than 8 µL/min/mg. In series [4], the half-life was 16.9 h.
The corresponding values for `O=C(OC(C(F)(F)F)C(F)(F)F)N1CCC2(CC1)C[C@@H](NS(=O)(=O)C1CC1)CO2` [Example 2, 1,1,1,3,3,3-Hexafluoropropan-2-yl (3R)-3-[(cyclopropylsulfonyl)amino]-1-oxa-8-azaspiro[4.5]decane-8-carboxylate] are 34.7 nM, 369 nM, 2050 1/s per M, less than 8 µL/min/mg and 40.7 h.
Turning to `O=C(OC(C(F)(F)F)C(F)(F)F)N1CCC2(CCC(NS(=O)(=O)CC3CC3)CO2)CC1` (stereo not drawn) [Example 3, 1,1,1,3,3,3-Hexafluoropropan-2-yl 3-{[(cyclopropylmethyl)sulfonyl]amino}-1-oxa-9-azaspiro[5.5]undecane-9-carboxylate], the IC50 in series [1] (setting [5]) was determined as 28.5 nM; in series [1] (setting [6]), 298 nM. For the same molecule, in series [2], the “MAGL kinact/KI” value is 3160 1/s per M. In series [3], the microsomal CLint at 1 μM is less than 8 µL/min/mg. Moreover, the half-life in series [4] was 26.3 h.
